According to the NIST ThermoML archive (doi:10.1021/acs.jced.8b00008):

Assay: xn = mol fraction of the nth substance listed
Settings: for viscosity / speed of sound / mass density: 102 kPa, Liquid; for viscosity: Concentric cylinders viscometry; for speed of sound: Single path-length method; for mass density: Vibrating tube method; for surface tension liquid-gas: Pendant drop shape

CCC1CCCCC1 [ethylcyclohexane] + CCCCCCCCCCCC
Settings	mass density [kg/m3]	speed of sound [m/s]	surface tension liquid-gas [mN/m]	viscosity [mPa·s]
293.15 K, x1 = 0.1	751.13	1296.6	–	1.43
293.15 K, x1 = 0.216	754.22	1295.2	–	1.34
293.15 K, x1 = 0.2999	756.65	1294.3	–	1.3
293.15 K, x1 = 0.4	759.77	1293.4	–	1.22
293.15 K, x1 = 0.5	763.3	1292.4	–	1.16
293.15 K, x1 = 0.5999	767.13	1291.8	–	1.13
293.15 K, x1 = 0.7	771.4	1291.3	–	1.07
293.15 K, x1 = 0.8	776.25	1291.2	–	0.998
293.15 K, x1 = 0.9	781.76	1291.7	–	0.932
294 K, x1 = 0.216	–	–	25.1	–
294 K, x1 = 0.2999	–	–	25.1	–
294 K, x1 = 0.4	–	–	25.1	–
294 K, x1 = 0.5	–	–	25.1	–
294 K, x1 = 0.5999	–	–	25.2	–
294 K, x1 = 0.8	–	–	25.2	–
303.15 K, x1 = 0.1	743.84	1257.8	–	1.2
303.15 K, x1 = 0.216	746.88	1256.6	–	1.15
303.15 K, x1 = 0.2999	749.28	1255.1	–	1.1
303.15 K, x1 = 0.4	752.35	1254	–	1.04
303.15 K, x1 = 0.5	755.8	1253.1	–	0.966
303.15 K, x1 = 0.5999	759.56	1251.7	–	0.934
303.15 K, x1 = 0.7	763.73	1250.7	–	0.887
303.15 K, x1 = 0.8	768.48	1250	–	0.832
303.15 K, x1 = 0.9	773.85	1249.7	–	0.782
313.15 K, x1 = 0.1	736.53	1219.8	–	1.02
313.15 K, x1 = 0.216	739.51	1218.6	–	0.973
313.15 K, x1 = 0.2999	741.87	1216.7	–	0.939
313.15 K, x1 = 0.4	744.89	1215.3	–	0.899
313.15 K, x1 = 0.5	748.26	1214.3	–	0.876
313.15 K, x1 = 0.5999	751.95	1212.4	–	0.85
313.15 K, x1 = 0.7	756.03	1210.9	–	0.789
313.15 K, x1 = 0.8	760.66	1209.6	–	0.743
313.15 K, x1 = 0.9	765.89	1208.6	–	0.698
323.15 K, x1 = 0.1	729.18	1182.5	–	0.893
323.15 K, x1 = 0.216	732.1	1181.1	–	0.858
323.15 K, x1 = 0.2999	734.42	1179	–	0.823
323.15 K, x1 = 0.4	737.38	1177.4	–	0.79
323.15 K, x1 = 0.5	740.68	1176.1	–	0.759
323.15 K, x1 = 0.5999	744.29	1173.8	–	0.718
323.15 K, x1 = 0.7	748.27	1171.9	–	0.686
323.15 K, x1 = 0.8	752.78	1170	–	0.646
323.15 K, x1 = 0.9	757.88	1168.3	–	0.614
333.15 K, x1 = 0.1	721.79	1146.2	–	0.769
333.15 K, x1 = 0.216	724.65	1144.3	–	0.757
333.15 K, x1 = 0.2999	726.93	1142.1	–	0.713
333.15 K, x1 = 0.4	729.83	1140.5	–	0.685
333.15 K, x1 = 0.5	733.05	1138.6	–	0.667
333.15 K, x1 = 0.5999	736.58	1136.2	–	0.627
333.15 K, x1 = 0.7	740.46	1133.9	–	0.601
333.15 K, x1 = 0.8	744.85	1131.3	–	0.567
333.15 K, x1 = 0.9	749.79	1128.9	–	0.537

CCC1CCCCC1 [ethylcyclohexane] + CCCCCCCCCCCCCCCC
Settings	mass density [kg/m3]	speed of sound [m/s]	surface tension liquid-gas [mN/m]	viscosity [mPa·s]
293.15 K, x1 = 0.0997	773.92	1353.2	–	3.17
293.15 K, x1 = 0.1997	774.6	1348.2	–	2.87
293.15 K, x1 = 0.3	775.39	1343.1	–	2.57
293.15 K, x1 = 0.4	776.26	1337.8	–	2.26
293.15 K, x1 = 0.4999	777.42	1331.4	–	1.99
293.15 K, x1 = 0.55	778.05	1328.1	–	1.89
293.15 K, x1 = 0.6	778.71	1325.3	–	1.73
293.15 K, x1 = 0.7001	780.35	1317.5	–	1.48
293.15 K, x1 = 0.8003	782.34	1309.8	–	1.25
293.15 K, x1 = 0.9	784.8	1301.6	–	1.04
296 K, x1 = 0.0997	–	–	26.8	–
296 K, x1 = 0.1997	–	–	26.7	–
296 K, x1 = 0.3	–	–	26.4	–
296 K, x1 = 0.4	–	–	26.2	–
296 K, x1 = 0.4999	–	–	26.3	–
296 K, x1 = 0.55	–	–	26.2	–
296 K, x1 = 0.6	–	–	26	–
296 K, x1 = 0.7001	–	–	25.9	–
296 K, x1 = 0.8003	–	–	25.7	–
296 K, x1 = 0.9	–	–	25.4	–
303.15 K, x1 = 0.0997	766.96	1315.5	–	2.54
303.15 K, x1 = 0.1997	767.62	1310.3	–	2.33
303.15 K, x1 = 0.3	768.36	1305.1	–	2.1
303.15 K, x1 = 0.4	769.18	1299.6	–	1.87
303.15 K, x1 = 0.4999	770.25	1292.9	–	1.67
303.15 K, x1 = 0.55	770.84	1289.4	–	1.58
303.15 K, x1 = 0.6	771.45	1286.4	–	1.46
303.15 K, x1 = 0.7001	772.96	1277.9	–	1.27
303.15 K, x1 = 0.8003	774.78	1269.5	–	1.07
303.15 K, x1 = 0.9	777.02	1260.2	–	0.896
313.15 K, x1 = 0.0997	760.01	1278.6	–	2.07
313.15 K, x1 = 0.1997	760.63	1273.4	–	1.9
313.15 K, x1 = 0.3	761.32	1268	–	1.74
313.15 K, x1 = 0.4	762.08	1262.2	–	1.56
313.15 K, x1 = 0.4999	763.06	1255.2	–	1.4
313.15 K, x1 = 0.55	763.61	1251.5	–	1.34
313.15 K, x1 = 0.6	764.16	1248.3	–	1.24
313.15 K, x1 = 0.7001	765.54	1239.2	–	1.08
313.15 K, x1 = 0.8003	767.19	1230	–	0.93
313.15 K, x1 = 0.9	769.2	1219.7	–	0.782
323.15 K, x1 = 0.0997	753.07	1242.7	–	1.73
323.15 K, x1 = 0.1997	753.64	1237.2	–	1.595
323.15 K, x1 = 0.3	754.28	1231.6	–	1.46
323.15 K, x1 = 0.4	754.97	1225.6	–	1.34
323.15 K, x1 = 0.4999	755.86	1218.3	–	1.21
323.15 K, x1 = 0.55	756.35	1214.3	–	1.15
323.15 K, x1 = 0.6	756.84	1211	–	1.09
323.15 K, x1 = 0.7001	758.08	1201.2	–	0.948
323.15 K, x1 = 0.8003	759.55	1191.3	–	0.822
323.15 K, x1 = 0.9	761.34	1180	–	0.693
333.15 K, x1 = 0.0997	746.13	1207.7	–	1.46
333.15 K, x1 = 0.1997	746.63	1202.1	–	1.355
333.15 K, x1 = 0.3	747.21	1196.2	–	1.25
333.15 K, x1 = 0.4	747.82	1189.9	–	1.16
333.15 K, x1 = 0.4999	748.62	1182.3	–	1.03
333.15 K, x1 = 0.55	749.06	1178	–	0.99
333.15 K, x1 = 0.6	749.49	1174.6	–	0.937
333.15 K, x1 = 0.7001	750.57	1164.1	–	0.821
333.15 K, x1 = 0.8003	751.86	1153.4	–	0.716
333.15 K, x1 = 0.9	753.41	1141.2	–	0.607
